Measured values taken from patent US12234211B2, “Cycloolefin substituted heteroaromatic compounds and their use” (HUTCHISON MEDIPHARMA LIMITED, priority 2017, dated 2025).
Converted amounts (≈) assume the structure as drawn. Where two headings read alike, the source gives them in different places.

Key:
[1] = Metabolic stability test in liver microsomes (rat); type: in vitro ADME; conditions: percentage of remaining compound after incubation for 30 minutes vs 0 minute; 1 μM compound; 0.5 mg/mL liver microsomes; 37° C.
Protocol: (§1) Male CD1 mouse liver microsomes was supplied by Research Institute for Liver Diseases (Shanghai) Co., Ltd. Male SD rat liver microsomes was supplied by BioreclamationIVT in US.
(§2) Phenacetin, glucose-6-phosphate (G-6-P), glucose-6-phosphate dehydrogenase (G-6-PD), and nicotinamide adenine dinucleotide phosphate (NADP) were supplied by Sigma-Aldrich (Missouri, USA).
(§3) 10 mM stock solution of test compound: Certain amount of test compound was weighed and dissolved in certain volume of dimethylsulfoxide (DMSO) to get the stock solution of test compound at 10 mM.
(§4) Reaction termination solution: Certain amount of phenacetin as internal standard was weighed and dissolved in acetonitrile to get the reaction termination solution at 1000 ng/mL, and stored at room temperature for use.
(§5) The stock solution of test compound was diluted to the designated concentration with organic solution (usually the mixtures of acetonitrile, methanol and water with different portions depending on the compound solution) to make the final concentration to be 1 μM and the contents of organic solvents no more than 1% (For DMSO, the controlled margin was 0.1%) in the final incubation system. 100 mM NADP, 500 mM G-6-P and 100 U/mL G-6-PDH were mixed and diluted with ultrapure water to provide the NADPH regenerating system containing 1 mM NADP, 5 mM G-6-P and 1 U/mL G-6-PD, which was pre-incubated at 37° C. water-bath for 10 min and then cooled on ice until being added into the reaction system. 20 mg/mL liver microsomes was mixed with 200 mM PBS and diluted with ultrapure water to make the concentrations of liver microsomes and PBS to be 0.5 mg/mL and 50 mM in the final incubation system, respectively. After the diluted liver microsomes was mixed with the NADPH regenerating solution, certain volumes of 100 mM EDTA and 300 mM MgCl2 (concentration of EDTA and MgCl2 in the final incubation system is 1 mM and 3 mM, respectively) were added, and the incubation system was put into 37° C. water bath. The incubation was commenced by adding the stock solution of test compound and maintained for 30 min. The incubation was terminated by adding the reaction termination solution. The 0 min sample was prepared by adding the reaction termination solution to the incubation system immediately prior to putting the system into the water bath with the addition of the stock solution of test compound. The terminated incubation mixtures were vortexed and centrifuged at 4400 rpm for 10 min, and the supernatant was collected for LC-MS/MS analysis.
(§6) The concentration of test compound was determined using LC-MS/MS method. Using the peak area ratio of the compound and the internal standard as an index, the percentage of remaining compound after incubation for 30 minutes as compared with the 0 minute sample was calculated, and the metabolic stability of the compound was evaluated.

[2] = Determination of solubility in sodium phosphate buffers; type: physicochemical; conditions: aqueous buffer, thermodynamic from solid
Protocol: • Sample standard solution: About 3-5 mg test compound was accurately weighed and added into a 5 mL sample tube, 5 mL DMSO was added. Shaking and sonicating for 1 hour. • pH 2.1 sample solution: About 1 mg test compound was accurately weighed and added into a 1 mL sample tube, 1 mL pH 2.1 sodium phosphate buffer was added. Shaking. Adding test compound to the solution, if the solution is visually clear, till there is obvious insoluble in the solution. Sonicating for 1 hour. • pH 7.4 sample solution: About 1 mg test compound was accurately weighed and added into a 1 mL sample tube, 1 mL pH 7.4 sodium phosphate buffer was added. Shaking. Adding test compound to the solution, if the solution is visually clear, till there is obvious insoluble in the solution. Sonicating for 1 hour. 2. Determination • 1 mL sample standard solution was accurately pipetted into a HPLC tube. The peak area was determined by HPLC. • 0.5 mL pH 2.1 sample solution was filtered by syringe filter and was accurately pipetted into a HPLC tube, and 0.5 mL pH 2.1 sodium phosphate buffer was accurately added. Shaking. The peak area was determined by HPLC. • 0.5 mL pH 7.4 sample solution was filtered by syringe filter and was accurately pipetted into a HPLC tube, and 0.5 mL pH 7.4 sodium phosphate buffer was accurately added. Shaking. The peak area was determined by HPLC. • HPLC condition: • Instrument: Agilent 1200 • Column: Agilent SB-C18 5 u 4.6*150 mm • Mobile phase: • Phase A: Water (containing 0.1% formic acid) • Phase B: MeOH (containing 0.1% formic acid)

[3] = Metabolic stability test in liver microsomes (mouse); type: in vitro ADME; conditions: percentage of remaining compound after incubation for 30 minutes vs 0 minute; 1 μM compound; 0.5 mg/mL liver microsomes; 37° C.
Protocol: as §1, §2, §3, §4, §5, §6

IDH1-R132H = biological target: T1, IDH1-R132H (Homo sapiens, UniProt O75874, R132H); assay: Fluorescent determination of IDH1-R132H cell activity (2-HG in U87MGR132H cells); type: cell-based; conditions: 2-HG inhibition in U87MGR132H cells transfected with IDH1-R132H mutant plasmid
T1 construct: expressed in transfected cells; host or cells: U87MG cells (U87MGR132H)

IDH2-R140Q = biological target: T2, IDH2-R140Q (Homo sapiens, UniProt P48735, R140Q); assay: Fluorescent determination of IDH2-R140Q cell activity (2-HG in U87MGR140Q cells); type: cell-based; conditions: 72 hours incubation, read-out: IC50 (2-HG inhibition)
T2 construct: expressed in transfected cells
T2 sequence (P48735 40-452 R140Q): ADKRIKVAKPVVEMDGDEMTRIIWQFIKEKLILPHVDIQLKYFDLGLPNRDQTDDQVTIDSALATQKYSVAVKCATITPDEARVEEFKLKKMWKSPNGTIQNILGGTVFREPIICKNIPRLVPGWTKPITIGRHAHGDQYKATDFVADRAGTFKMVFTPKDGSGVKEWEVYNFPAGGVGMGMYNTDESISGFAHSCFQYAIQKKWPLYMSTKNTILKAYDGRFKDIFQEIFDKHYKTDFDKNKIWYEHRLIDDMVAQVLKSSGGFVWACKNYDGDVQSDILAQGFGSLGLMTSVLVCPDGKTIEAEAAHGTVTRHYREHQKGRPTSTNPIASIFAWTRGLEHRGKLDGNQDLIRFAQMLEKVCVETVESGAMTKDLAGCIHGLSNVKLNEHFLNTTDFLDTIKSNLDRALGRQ

mutant IDH1 = conditions: patients with AML or MDS having IDH1 mutations; cited from earlier work

T1 sequence (O75874 whole entry R132H): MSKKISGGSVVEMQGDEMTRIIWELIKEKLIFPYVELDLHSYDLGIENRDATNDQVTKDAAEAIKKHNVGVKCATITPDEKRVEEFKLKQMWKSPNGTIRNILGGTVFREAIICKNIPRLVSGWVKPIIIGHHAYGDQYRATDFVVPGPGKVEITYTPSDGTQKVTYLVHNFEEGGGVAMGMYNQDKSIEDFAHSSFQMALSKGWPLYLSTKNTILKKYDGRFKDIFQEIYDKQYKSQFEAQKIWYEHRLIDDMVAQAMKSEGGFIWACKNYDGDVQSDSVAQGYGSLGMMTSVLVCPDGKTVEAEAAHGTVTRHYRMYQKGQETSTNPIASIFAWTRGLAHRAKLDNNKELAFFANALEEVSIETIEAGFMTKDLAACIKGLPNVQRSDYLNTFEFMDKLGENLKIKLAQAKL

Rat liver microsome stability [1]	solubility at 1 h ([2]; pH 2.1 sodium phosphate buffer, read-out: Solubility pH 2.1)	solubility at 1 h ([2]; pH 7.4 sodium phosphate buffer, read-out: Solubility pH 7.4)	Mouse liver microsome stability [3]	IC50 (IDH1-R132H)	IC50 (IDH2-R140Q)	Structure (SMILES)	patients with decreased levels of α-hydroxyglutaric acid (2HG) (mutant IDH1)
98.5%	77 µg/mL (≈ 177 µM)	21 µg/mL (≈ 48.2 µM)	89.5%	47 nM	52 nM	C[C@@H](Nc1nc(N[C@H](C)C(F)(F)F)nc(C2=C(F)C(O)C(F)CC2)n1)C(F)(F)F (single isomer, unassigned) [Compound 97]	–
–	–	–	–	–	–	N#Cc1ccnc(N2C(=O)CC[C@H]2C(=O)N(c2cncc(F)c2)[C@H](C(=O)NC2CC(F)(F)C2)c2ccccc2Cl)c1 [AG-120]	98%
